Measurements: patent US8703811B2, “Small molecule inhibitors of Plasmodium falciparum dihydroorotate dehydrogenase” (Genzyme Corporation, priority 2008, dated 2014)
Where two headings read alike, the source gives them in different places.

Columns and labels:
[1] = system: P. falciparum 3D7; assay: Inhibition of in vitro P. falciparum culture, [3H]-hypoxanthine uptake, 3D7; type: cell-based
Method: (§1) P. falciparum strains D10, 3D7, HB3, and Dd2 were obtained from the Malaria Research and Reference Reagent Resource Center (Manassas, Va.). The parasite strains were maintained in vitro by method of Trager and Jensen. The inhibition of P. falciparum growth in the presence of drug was assessed by the relative reduction of [^3H]-hypoxanthine uptake as previously described. Inhibition data were fitted to Equation 1 using non-linear regression analysis except that the relative velocity of parasite growth was substituted for the rate of product formation.

[2] = target: hsDHODH (Homo sapiens (Human), UniProt Q02127); assay: DCIP assay, hsDHODH; type: biochemical; details: Table 2b; read-out: Hu (human DHODH) IC50
Text: (§2) Type 2 DHODH activity was monitored with either the direct assay measuring the formation of orotate or via a chromogen reduction assay using DCIP. Although the extinction coefficient and absorption wavelength are preferable for the chromogen reduction assay, the inorganic electron acceptor DCIP can be utilized by DHODH as the final electron acceptor in lieu of CoQn when the endogenous substrate is at a low concentration. As such, the direct assay was used to measure the binding affinity of pfDHODH to CoQD and L-DHO. The enzymatic reaction was performed by varying the L-DHO concentration (1-400 μM) or CoQD concentration (1-200 μM) while keeping the other substrate constant and in excess. The formation of orotate was measured continuously at 296 nm (ε296=4.3 mM^−1 cm^−1). Inhibition of DHODH by small molecules was evaluated using the chromogen based assay with a final substrate concentration of 200 μM L-DHO, 18 μM CoQD, and 100 μM DCIP, unless otherwise noted. The reduction of DCIP was monitored at 600 nm (ε600=18.8 mM^−1 cm^−1).
(§3) Substrate specificity and enzyme inhibition data was analyzed with GraphPad Prism Version 4 for Windows (GraphPad Software). Kinetic constants were calculated by non-linear regression fitting of the data to the Michaelis-Menten equation [36]. IC50 values were determined by non-linear regression fitting of the data to Equation 1: […]

[3] = target: pfDHODH (Plasmodium falciparum (isolate 3D7), UniProt Q08210); assay: DHODH chromogen reduction (DCIP) assay, pfDHODH; type: biochemical, P. falciparum
Text: as §2, with “excess.” for “excess. The formation of orotate was measured continuously at 296 nm (ε296=4.3 mM^−1 cm^−1). Inhibition of DHODH by small molecules was evaluated using the chromogen based assay with a final substrate concentration of 200 μM L-DHO, 18 μM CoQD, and 100 μM DCIP, unless otherwise noted. The reduction of DCIP was monitored at 600 nm (ε600=18.8 mM^−1 cm^−1).”
as §3

[4] = system: P. falciparum Dd2; assay: Inhibition of in vitro P. falciparum culture, [3H]-hypoxanthine uptake, Dd2; type: cell-based
Method: as §1

[5] = Plasmodium falciparum, 3D7, Table 2b, read-out: 3D7 EC50
[6] = Table 2b, read-out: pfDHODH IC50
[7] = Plasmodium falciparum, DD2, Table 2b, read-out: Dd2 EC50

Chain of pfDHODH (Q08210 159-565 limits assumed): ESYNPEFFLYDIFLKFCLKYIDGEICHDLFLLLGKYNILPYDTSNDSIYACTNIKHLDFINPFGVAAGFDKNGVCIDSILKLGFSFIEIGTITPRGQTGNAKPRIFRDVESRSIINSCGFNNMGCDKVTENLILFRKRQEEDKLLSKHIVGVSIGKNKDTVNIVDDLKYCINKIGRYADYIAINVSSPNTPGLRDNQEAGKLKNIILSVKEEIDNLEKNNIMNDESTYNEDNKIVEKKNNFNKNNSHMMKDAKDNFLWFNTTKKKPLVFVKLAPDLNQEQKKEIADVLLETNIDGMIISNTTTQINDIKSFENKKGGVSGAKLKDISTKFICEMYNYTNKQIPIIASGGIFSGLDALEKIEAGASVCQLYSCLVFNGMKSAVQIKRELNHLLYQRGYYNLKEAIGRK
Chain of hsDHODH (Q02127 29-395 limits assumed): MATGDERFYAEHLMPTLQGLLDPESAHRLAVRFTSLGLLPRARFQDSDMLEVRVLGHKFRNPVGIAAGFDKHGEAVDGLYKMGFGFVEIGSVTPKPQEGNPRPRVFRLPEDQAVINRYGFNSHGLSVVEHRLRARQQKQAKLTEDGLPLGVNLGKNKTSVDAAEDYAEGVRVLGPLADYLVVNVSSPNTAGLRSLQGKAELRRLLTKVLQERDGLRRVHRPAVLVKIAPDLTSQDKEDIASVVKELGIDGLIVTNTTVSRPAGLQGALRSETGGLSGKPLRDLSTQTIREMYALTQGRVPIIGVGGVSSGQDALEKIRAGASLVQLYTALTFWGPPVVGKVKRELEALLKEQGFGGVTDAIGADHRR

Row | Compound | EC50 [1, 5] | IC50 [2] | IC50 [3, 6] | EC50 [4, 7] | EC50 ([1]; Table 2b, read-out: 3D7 EC50) | EC50 ([4]; Table 2b, read-out: Dd2 EC50) | EC50 ([1]; Plasmodium falciparum, 3D7, read-out: 3D7 EC50, Table 2b) | IC50 ([3]; pfDHODH IC50, Table 2b) | EC50 ([4]; Plasmodium falciparum, DD2, read-out: Dd2 EC50, Table 2b)
1 | O=C(NC1CC1)c1ccc(-n2cnc3ccccc32)s1 [Compound 23] | 79 nM | > 30000 nM | 56 nM | 88 nM | – | – | – | – | –
2 | CNC(=O)c1ccc(-n2cnc3ccccc32)s1 [Compound 24] | 276 nM | > 30000 nM | 1080 nM | 422 nM | – | – | – | – | –
3 | CCNC(=O)c1ccc(-n2cnc3ccccc32)s1 [Compound 25] | 102 nM | > 30000 nM | 145 nM | 154 nM | – | – | – | – | –
4 | O=C(NCCO)c1ccc(-n2cnc3ccccc32)s1 [Compound 30] | 5900 nM | > 30000 nM | 14000 nM | 6500 nM | – | – | – | – | –
5 | Cc1nc2ccccc2n1-c1ccc(C(=O)NC2CC2)s1 [Compound 31] | 66 nM | > 30000 nM | 99 nM | 106 nM | – | – | – | – | –
6 | Cc1nc2ccccc2n1-c1ccc(C(=O)NC2CC2)s1 [Compound 32] | – | > 30000 nM | 74 nM | – | 105 nM | 114 nM | – | – | –
7 | CCNC(=O)c1ccc(-n2c(C)nc3ccccc32)s1 [Compound 33] | – | > 30000 nM | 191 nM | – | 113 nM | 223 nM | – | – | –
8 | O=C(NC1CCCC1)c1ccc(-n2cnc3ccccc32)s1 [Compound 35] | 4400 nM | > 30000 nM | 2510 nM | 5500 nM | – | – | – | – | –
9 | CC(C)NC(=O)c1ccc(-n2cnc3ccccc32)s1 [Compound 36] | 579 nM | > 30000 nM | 684 nM | 812 nM | – | – | – | – | –
10 | O=C(NC1CCC1)c1ccc(-n2cnc3ccccc32)s1 [Compound 38] | 408 nM | > 30000 nM | 418 nM | 442 nM | – | – | – | – | –
11 | COc1ccc2c(c1)nc(C)n2-c1ccc(C(=O)NC2CC2)s1 [Compound 39] | 180 nM | 24600 nM | 212 nM | 247 nM | – | – | – | – | –
12 | Cc1nc2cc(Cl)ccc2n1-c1ccc(C(=O)NC2CC2)s1 [Compound 40] | – | > 30000 nM | – | – | – | – | 88 nM | 58 nM | 120 nM
13 | Cc1nc2cc(F)ccc2n1-c1ccc(C(=O)NC2CC2)s1 [Compound 42] | – | > 30000 nM | 88 nM | – | 104 nM | 150 nM | – | – | –
14 | Cc1nc2cc(F)ccc2n1-c1ccc(C(=O)NC2CC2)s1 [Compound 43] | – | 20300 nM | 104 nM | – | 39 nM | 36 nM | – | – | –
15 | Cc1ccc2c(c1)nc(C)n2-c1ccc(C(=O)NC2CC2)s1 [Compound 44] | 34 nM | > 30000 nM | 56 nM | 48 nM | – | – | – | – | –
16 | CCc1nc2ccccc2n1-c1ccc(C(=O)NC2CC2)s1 [Compound 49] | 125 nM | > 30000 nM | 113 nM | 185 nM | – | – | – | – | –
17 | CCCNC(=O)c1ccc(-n2c(C)nc3cc(F)ccc32)s1 [Compound 50] | 255 nM | > 30000 nM | 499 nM | 538 nM | – | – | – | – | –
18 | CCCNC(=O)c1ccc(-n2c(C)nc3cc(Cl)ccc32)s1 [Compound 51] | 158 nM | > 30000 nM | 239 nM | 314 nM | – | – | – | – | –
19 | CCNC(=O)c1ccc(-n2c(C)nc3cc(Cl)ccc32)s1 [Compound 52] | 53 nM | > 30000 nM | 94 nM | 104 nM | – | – | – | – | –
20 | CCNC(=O)c1ccc(-n2c(C)nc3cc(F)ccc32)s1 [Compound 53] | 66 nM | > 30000 nM | 164 nM | 106 nM | – | – | – | – | –

Row | Compound | EC50 [1, 5] | IC50 [2] | IC50 [3, 6] | EC50 [4, 7] | EC50 ([1]; Table 2b, read-out: 3D7 EC50) | EC50 ([4]; Table 2b, read-out: Dd2 EC50) | EC50 ([1]; Plasmodium falciparum, 3D7, read-out: 3D7 EC50, Table 2b) | IC50 ([3]; pfDHODH IC50, Table 2b) | EC50 ([4]; Plasmodium falciparum, DD2, read-out: Dd2 EC50, Table 2b)
21 | CCCNC(=O)c1ccc(-n2cnc3cc(Cl)ccc32)s1 [Compound 56] | 203 nM | > 30000 nM | 324 nM | – | – | – | – | – | –
22 | Cc1nc2cc(OC(F)(F)F)ccc2n1-c1ccc(C(=O)NC2CC2)s1 [Compound 57] | 33 nM | > 30000 nM | 64 nM | 60 nM | – | – | – | – | –
23 | Cc1nc2ccc(OC(F)(F)F)cc2n1-c1ccc(C(=O)NC2CC2)s1 [Compound 58] | 9 nM | > 30000 nM | 36 nM | 16 nM | – | – | – | – | –
24 | CCCc1nc2ccccc2n1-c1ccc(C(=O)NCC)s1 [Compound 59] | 382 nM | 19400 nM | 334 nM | 467 nM | – | – | – | – | –
25 | Cc1ccc2c(c1)ncn2-c1ccc(C(=O)NC2CC2)s1 [Compound 60] | 20 nM | 24600 nM | 38 nM | 21 nM | – | – | – | – | –
26 | CCNC(=O)c1ccc(-n2cnc3cc(C)ccc32)s1 [Compound 61] | 27 nM | 21200 nM | 75 nM | 39 nM | – | – | – | – | –
27 | CCNC(=O)c1ccc(-n2c(C)nc3cc(C)ccc32)s1 [Compound 62] | 89 nM | > 30000 nM | 112 nM | 87 nM | – | – | – | – | –
28 | CCNC(=O)c1ccc(-n2c(CC)nc3ccccc32)s1 [Compound 63] | 141 nM | > 30000 nM | 137 nM | 146 nM | – | – | – | – | –
29 | Cc1nc2cc(C(F)(F)F)ccc2n1-c1ccc(C(=O)NC2CC2)s1 [Compound 64] | 8 nM | 28000 nM | 41 nM | 12 nM | – | – | – | – | –
30 | Cc1cccc2c1nc(C)n2-c1ccc(C(=O)NC2CC2)s1 [Compound 65] | 9 nM | > 30000 nM | 42 nM | 13 nM | – | – | – | – | –
31 | CCc1nc2cc(F)ccc2n1-c1ccc(C(=O)NC2CC2)s1 [Compound 66] | 136 nM | > 30000 nM | 67 nM | 253 nM | – | – | – | – | –
32 | CCCc1nc2ccccc2n1-c1ccc(C(=O)NC2CC2)s1 [Compound 67] | 389 nM | 25600 nM | 180 nM | 629 nM | – | – | – | – | –
33 | CCNC(=O)c1ccc(-n2cnc3cc(F)ccc32)s1 [Compound 68] | 90 nM | > 30000 nM | 105 nM | 132 nM | – | – | – | – | –
34 | CCNC(=O)c1ccc(-n2c(CC)nc3cc(F)ccc32)s1 [Compound 69] | 226 nM | > 30000 nM | 178 nM | 361 nM | – | – | – | – | –
35 | O=C(NC1CC1)c1ccc(-n2cnc3cc(F)ccc32)s1 [Compound 70] | 62 nM | > 30000 nM | 58 nM | 105 nM | – | – | – | – | –
36 | Cc1nc(-c2ccccc2)cn1-c1ccc(C(=O)NC2CC2)s1 [Compound 74] | 124 nM | > 30000 nM | 220 nM | 206 nM | – | – | – | – | –
37 | CCNC(=O)c1ccc(-n2cc(-c3ccccc3)nc2C)s1 [Compound 75] | 278 nM | > 30000 nM | 416 nM | 283 nM | – | – | – | – | –
38 | Cc1nc(-c2ccc(F)cc2)cn1-c1ccc(C(=O)NC2CC2)s1 [Compound 76] | 226 nM | > 30000 nM | 240 nM | 217 nM | – | – | – | – | –
39 | CCCCC(=O)c1ccc(-n2cnc3ccccc32)s1 [Compound 84, 1-[5-(1H-benzimidazol-1-yl)-2-thienyl]pentan-1-one] | > 40000 nM | > 30000 nM | > 30000 nM | 20000 nM | – | – | – | – | –
40 | Cc1nc2cc3c(cc2n1-c1ccc(C(=O)NC2CC2)s1)OCO3 [Compound 90] | 220 nM | > 30000 nM | 116 nM | 174 nM | – | – | – | – | –
